Experimental data from US20260201008A1, “SECRETIN-DERIVED GLP1R SELECTIVE AGONISTS” (GUBRA A/S, priority 2023, published 2026).
Numbered stars: 1 amine (or outer) side, 2 acyl side, 3 side chain; on linkers, the order of the positions; unused ones are H or OH. Square brackets hold non-standard residues; d marks the D form. Side chains are listed from the residue outwards. Peptide text beside a SMILES is read from it. * marks the point of attachment. C20 diacid = O=C(O)CCCCCCCCCCCCCCCCCCC(=O)*; γGlu = O=C(O)[C@H](CCC(=O)[*:2])N[*:1]; AEEA = NCCOCCOCC(=O)O; Aib = CC(C)(N)C(=O)O

Experiments:
[1] = target: SCTR (Homo sapiens, UniProt P47872); test: hSCTR potency, cAMP accumulation in CHO-K1 cells stably overexpressing hSCTR; format: cell-based; set-up: alternatively Euroscreen ES-712-AF; FAST-0161L; host or cells: CHO-K1; settings: cAMP accumulation, CHO-K1 cells overexpressing hSCTR; read-out: pEC50 hSCTR (converted)
Procedure, shortened: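 Potency reflects cAMP accumulation after 30 min agonist exposure at room temperature in hSCTR-expressing CHO-K1 cells, with 0.5 mM IBMX present to block phosphodiesterase. EC50 was derived by nonlinear regression.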

[2] = Fibril formation of crude library peptides (Thioflavin T); format: physicochemical; set-up: key: average ThT fluorescence emission at 480 nm (ex 450 nm), raw units; settings: Physical stability of peptides
Procedure, shortened: (§1)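 Values reflect mean ThT emission (ex 450, em 480 nm) over 72 h at 40° C, read every 10 min after 5 min shaking at 700 rpm, plus a single initial absorbance at 600 nm for turbidity. Peptides were at 267 μM, pH 4.0 acetate or pH 7.0 phosphate (50 mM), with 4 μM ThT.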

[3] = target: GLP1R (Homo sapiens, UniProt P43220); test: hGLP1R potency, cAMP accumulation in CHO-K1 cells stably overexpressing hGLP1R; format: cell-based; set-up: host or cells: CHO-K1; settings: for Selectivity: SCTR EC50/GLP1R EC50 ratio; for EC50: cAMP accumulation, CHO-K1 cells overexpressing hGLP1R, read-out: pEC50 hGLPR1 (converted)
Procedure, shortened: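 Potency reflects cAMP accumulation measured by time-resolved fluorescence energy transfer after a 30 min room-temperature stimulation in IBMX-containing (0.5 mM) DPBS with casein. Purified peptides were tested in duplicate over eleven threefold dilutions, and EC50 was obtained from sigmoid concentration-response fitting.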

[4] = Turbidity of crude library peptides (absorbance at 600 nm); format: physicochemical; settings: Physical stability of peptides
Procedure, shortened: as §1

GLP1R, sequence (P43220 24-463): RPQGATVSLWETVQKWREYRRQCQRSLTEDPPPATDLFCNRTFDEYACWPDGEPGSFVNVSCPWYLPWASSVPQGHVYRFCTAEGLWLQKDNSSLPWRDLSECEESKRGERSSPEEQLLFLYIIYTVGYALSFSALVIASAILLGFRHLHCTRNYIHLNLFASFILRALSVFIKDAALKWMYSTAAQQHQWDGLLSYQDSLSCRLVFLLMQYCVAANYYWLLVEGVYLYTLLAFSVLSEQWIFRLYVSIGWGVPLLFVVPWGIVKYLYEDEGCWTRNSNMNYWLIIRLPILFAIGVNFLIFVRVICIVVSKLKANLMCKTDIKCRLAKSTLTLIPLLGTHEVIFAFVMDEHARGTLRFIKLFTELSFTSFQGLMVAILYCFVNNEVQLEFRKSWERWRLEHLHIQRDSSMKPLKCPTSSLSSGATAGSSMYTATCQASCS
SCTR, sequence (P47872 23-440): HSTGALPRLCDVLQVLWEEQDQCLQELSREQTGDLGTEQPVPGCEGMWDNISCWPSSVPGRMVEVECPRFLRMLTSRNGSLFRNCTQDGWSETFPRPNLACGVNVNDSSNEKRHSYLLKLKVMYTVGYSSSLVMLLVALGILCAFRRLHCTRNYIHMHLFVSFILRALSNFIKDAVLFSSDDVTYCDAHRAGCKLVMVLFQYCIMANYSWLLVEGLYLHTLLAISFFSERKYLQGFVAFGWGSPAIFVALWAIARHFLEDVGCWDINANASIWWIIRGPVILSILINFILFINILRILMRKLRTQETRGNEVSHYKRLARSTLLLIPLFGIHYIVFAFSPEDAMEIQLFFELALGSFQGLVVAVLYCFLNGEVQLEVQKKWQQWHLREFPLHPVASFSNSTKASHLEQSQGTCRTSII

| SMILES | EC50 [1] | Fibril formation [2] | Selectivity [3] | EC50 [3] | Turbidity (pH 7) [4] |
| --- | --- | --- | --- | --- | --- |
| CC(C)C[C@H](NC(=O)[C@H](Cc1ccccc1)NC(=O)[C@H](CCCNC(=N)N)NC(=O)[C@H](CCC(N)=O)NC(=O)[C@@H](NC(=O)[C@H](C)NC(=O)[C@H](C)NC(=O)[C@H](CCC(=O)O)NC(=O)[C@H](CCC(=O)O)NC(=O)[C@H](CCCCNC(=O)COCCOCCNC(=O)COCCOCCNC(=O)CC[C@H](NC(=O)CCCCCCCCCCCCCCCCCCC(=O)O)C(=O)O)NC(=O)[C@H](CC(C)C)NC(=O)[C@H](Cc1ccc(O)cc1)NC(=O)[C@H](CO)NC(=O)[C@@H](NC(=O)[C@H](CC(=O)O)NC(=O)[C@H](CO)NC(=O)[C@@H](NC(=O)[C@H](Cc1ccccc1)NC(=O)[C@@H](NC(=O)CNC(=O)[C@H](CCC(=O)O)NC(=O)C(C)(C)NC(=O)[C@@H](N)Cc1c[nH]cn1)[C@@H](C)O)[C@@H](C)O)C(C)C)[C@@H](C)O)C(=O)N[C@@H](CCC(=O)O)C(=O)N[C@@H](Cc1c[nH]cn1)C(=O)N[C@@H](CC(C)C)C(=O)N[C@H](C(N)=O)C(C)C [compound 30] (H-H[Aib]EGTFTSDVSYLK([AEEA-AEEA-γGlu-C20 diacid])EEAATQRFLEHLV-NH2) | 251 nM | 6899 | 22387 | 0.0126 nM | 0.08 |
| CC(C)C[C@H](NC(=O)[C@H](Cc1ccccc1)NC(=O)[C@H](CCCNC(=N)N)NC(=O)[C@H](CCC(N)=O)NC(=O)[C@H](CCC(=O)O)NC(=O)[C@H](C)NC(=O)[C@H](C)NC(=O)[C@H](Cc1ccccc1)NC(=O)[C@H](CCC(=O)O)NC(=O)[C@H](CCCCNC(=O)COCCOCCNC(=O)COCCOCCNC(=O)CC[C@H](NC(=O)CCCCCCCCCCCCCCCCCCC(=O)O)C(=O)O)NC(=O)[C@H](CC(C)C)NC(=O)[C@H](CCC(=O)O)NC(=O)[C@H](CO)NC(=O)[C@@H](NC(=O)[C@H](CC(=O)O)NC(=O)[C@H](CO)NC(=O)[C@@H](NC(=O)[C@H](Cc1ccccc1)NC(=O)[C@@H](NC(=O)CNC(=O)[C@H](CCC(=O)O)NC(=O)C(C)(C)NC(=O)[C@@H](N)Cc1c[nH]cn1)[C@@H](C)O)[C@@H](C)O)C(C)C)C(=O)N[C@@H](CCC(=O)O)C(=O)N[C@@H](Cc1c[nH]cn1)C(=O)N[C@@H](CC(C)C)C(=O)N[C@H](C(N)=O)C(C)C [compound 31] (H-H[Aib]EGTFTSDVSELK([AEEA-AEEA-γGlu-C20 diacid])EFAAEQRFLEHLV-NH2) | 6310 nM | 10417 | 144477 | 0.0398 nM | 0.08 |
| CC(C)C[C@H](NC(=O)[C@H](Cc1ccccc1)NC(=O)[C@H](CCCNC(=N)N)NC(=O)[C@H](CCC(N)=O)NC(=O)C(C)(C)NC(=O)[C@H](C)NC(=O)[C@H](C)NC(=O)C(C)(C)NC(=O)[C@H](CCC(=O)O)NC(=O)[C@H](CCCCNC(=O)COCCOCCNC(=O)COCCOCCNC(=O)CC[C@H](NC(=O)CCCCCCCCCCCCCCCCCCC(=O)O)C(=O)O)NC(=O)[C@H](CC(C)C)NC(=O)[C@@H](NC(=O)[C@H](CO)NC(=O)[C@@H](NC(=O)[C@H](CC(=O)O)NC(=O)[C@H](CO)NC(=O)[C@@H](NC(=O)[C@H](Cc1ccccc1)NC(=O)[C@@H](NC(=O)CNC(=O)[C@H](CCC(=O)O)NC(=O)C(C)(C)NC(=O)[C@@H](N)Cc1c[nH]cn1)[C@@H](C)O)[C@@H](C)O)C(C)C)[C@@H](C)O)C(=O)N[C@@H](CCC(=O)O)C(=O)N[C@@H](Cc1c[nH]cn1)C(=O)N[C@@H](CC(C)C)C(=O)N[C@H](C(N)=O)C(C)C [compound 32] (H-H[Aib]EGTFTSDVSTLK([AEEA-AEEA-γGlu-C20 diacid])E[Aib]AA[Aib]QRFLEHLV-NH2) | 631 nM | 16551 | 23147 | 0.0251 nM | 0.08 |

Continued, values first:

| EC50 [1] | Fibril formation [2] | Selectivity [3] | EC50 [3] | Turbidity (pH 7) [4] | SMILES |
| --- | --- | --- | --- | --- | --- |
| 316 nM | 45087 | 5737 | 0.0631 nM | 0.08 | CC(C)C[C@H](NC(=O)[C@H](CCC(=O)O)NC(=O)[C@H](CCCCNC(=O)COCCOCCNC(=O)COCCOCCNC(=O)CC[C@H](NC(=O)CCCCCCCCCCCCCCCCCCC(=O)O)C(=O)O)NC(=O)[C@H](CC(C)C)NC(=O)[C@@H](NC(=O)[C@H](CO)NC(=O)[C@@H](NC(=O)[C@H](CC(=O)O)NC(=O)[C@H](CO)NC(=O)[C@@H](NC(=O)[C@H](Cc1ccccc1)NC(=O)[C@@H](NC(=O)CNC(=O)[C@H](CCC(=O)O)NC(=O)C(C)(C)NC(=O)[C@@H](N)Cc1c[nH]cn1)[C@@H](C)O)[C@@H](C)O)C(C)C)C(C)C)C(=O)N[C@@H](C)C(=O)N[C@@H](C)C(=O)N[C@@H](CCC(N)=O)C(=O)N[C@@H](CCC(N)=O)C(=O)N[C@@H](CCCNC(=N)N)C(=O)N[C@@H](Cc1ccccc1)C(=O)N[C@@H](CC(C)C)C(=O)N[C@@H](CCC(=O)O)C(=O)N[C@@H](Cc1c[nH]cn1)C(=O)N[C@@H](CC(C)C)C(=O)N[C@H](C(N)=O)C(C)C [compound 33] (H-H[Aib]EGTFTSDVSVLK([AEEA-AEEA-γGlu-C20 diacid])ELAAQQRFLEHLV-NH2) |
| 398 nM | 11365 | 18582 | 0.0251 nM | 0.08 | CC(C)C[C@H](NC(=O)[C@H](Cc1ccccc1)NC(=O)[C@H](CCCNC(=N)N)NC(=O)[C@H](CCC(N)=O)NC(=O)[C@H](CCC(=O)O)NC(=O)[C@H](C)NC(=O)[C@H](C)NC(=O)[C@@H](NC(=O)[C@H](CCC(=O)O)NC(=O)[C@H](CCCCNC(=O)COCCOCCNC(=O)COCCOCCNC(=O)CC[C@H](NC(=O)CCCCCCCCCCCCCCCCCCC(=O)O)C(=O)O)NC(=O)[C@H](CC(C)C)NC(=O)[C@H](CCCNC(=N)N)NC(=O)[C@H](CO)NC(=O)[C@@H](NC(=O)[C@H](CC(=O)O)NC(=O)[C@H](CO)NC(=O)[C@@H](NC(=O)[C@H](Cc1ccccc1)NC(=O)[C@@H](NC(=O)CNC(=O)[C@H](CCC(=O)O)NC(=O)C(C)(C)NC(=O)[C@@H](N)Cc1c[nH]cn1)[C@@H](C)O)[C@@H](C)O)C(C)C)[C@@H](C)O)C(=O)N[C@@H](CCC(=O)O)C(=O)N[C@@H](Cc1c[nH]cn1)C(=O)N[C@@H](CC(C)C)C(=O)N[C@H](C(N)=O)C(C)C [compound 34] (H-H[Aib]EGTFTSDVSRLK([AEEA-AEEA-γGlu-C20 diacid])ETAAEQRFLEHLV-NH2) |
| 794 nM | 8261 | 43142 | 0.0158 nM | 0.08 | CC(C)C[C@H](NC(=O)[C@H](Cc1ccccc1)NC(=O)[C@H](CCCNC(=N)N)NC(=O)[C@H](CCC(N)=O)NC(=O)C(C)(C)NC(=O)[C@H](C)NC(=O)[C@H](C)NC(=O)[C@H](CCC(=O)O)NC(=O)[C@H](CCC(=O)O)NC(=O)[C@H](CCCCNC(=O)COCCOCCNC(=O)COCCOCCNC(=O)CC[C@H](NC(=O)CCCCCCCCCCCCCCCCCCC(=O)O)C(=O)O)NC(=O)[C@H](CC(C)C)NC(=O)[C@@H](NC(=O)[C@H](CO)NC(=O)[C@@H](NC(=O)[C@H](CC(=O)O)NC(=O)[C@H](CO)NC(=O)[C@@H](NC(=O)[C@H](Cc1ccccc1)NC(=O)[C@@H](NC(=O)CNC(=O)[C@H](CCC(=O)O)NC(=O)C(C)(C)NC(=O)[C@@H](N)Cc1c[nH]cn1)[C@@H](C)O)[C@@H](C)O)C(C)C)C(C)C)C(=O)N[C@@H](CCC(=O)O)C(=O)N[C@@H](Cc1c[nH]cn1)C(=O)N[C@@H](CC(C)C)C(=O)N[C@H](C(N)=O)C(C)C [compound 35] (H-H[Aib]EGTFTSDVSVLK([AEEA-AEEA-γGlu-C20 diacid])EEAA[Aib]QRFLEHLV-NH2) |
